By melting point is commonly meant the temperature, or range, at which the solid turns liquid.

Structures are written as SMILES.

`CCC(CC)c1ccc(Cl)c2nc3n(c12)CCCCN3c1ccc(OC(F)(F)F)cc1Br`: the melting point lay within 114 to 117 °C.
The figure for `Cc1cnc(CSc2nc3cc(OC(F)(F)C(F)F)ccc3[nH]2)c(Cl)c1N1CCCCC1` is 170 to 171 °C; for `CCCCc1cc(C(N)=O)ccc1OCCCNc1cnn(C(C)C)c(=O)c1Cl` it is 172 to 174 °C.
For the molecule `O=C(NC1CCCCC1)c1ccc(-c2cnc(-c3ccc(NC(=O)c4ccccn4)cc3)[nH]2)cc1`, the melting point fell in the range of 250 to 252 °C.
The figure for `N#CN1C2CCC1CC(c1n[nH]c3cc(F)ccc13)C2` (stereo not drawn) is 182 to 184 °C; for `COc1ccc(C2=NN(CCCCCCN3C(=O)c4ccccc4C3=O)C(=O)[C@H]3CC=CC[C@@H]23)cc1OC` (relative stereo) it is 104 to 105 °C.
The figure for `Cc1ccc2ncnc(N3CCc4ccc(Cl)cc43)c2c1` is 138 to 141 °C; for `O=C(NCc1ccn(-c2cc3nc(C(=O)O)c(=O)[nH]c3cc2C(F)(F)F)c1)Nc1cccc(F)c1` it is 169 to 171 °C; for `COc1ccc(-c2cnc(N)c(Sc3ccccc3)n2)cc1` it is 89 to 90 °C.
For `Cc1cc(-c2cc(C(F)(F)F)n3ncc(I)c3n2)ccc1Cl` the value was 151 °C.
In turn, `CC(=O)OC1C(N2CCCCC2)CC2C3CCC4CCC(=O)CC4(C)C3CCC21C` (stereo not drawn) displayed a melting point of 165 to 167 °C.
The molecule `Brc1ccc(Br)c2nc(-c3ccccc3)c(-c3ccccc3)nc12` returned a melting point of 221 to 223 °C.
Take `CCCCCCOc1ccc(-c2ncc(C#N)c(Cl)n2)cc1`: the melting point is 133 °C.
For `CC(C)=CCCn1c(=O)sc2c(=O)[nH]c(N)nc21` the value was 240 to 242 °C; for `COc1ccc2[nH]c(C)cc2c1O`, 118 to 119 °C.
`CCS(=O)(=O)N[C@H](C(=O)NCCc1ccc(OCc2ccccc2)c(OC)c1)C(C)C` registered a melting point of 140 to 142 °C.
For `O=Cc1ccc2c(c1)OCC(=O)N2` the value was 178 to 180 °C; for `O=C(Cc1ccccc1SCc1ccccc1)Nc1ccccc1`, 81 to 83 °C; for `COC(=O)CNC(=O)c1nc(Cl)c2ccccc2c1O`, 129 °C.
`O=C(CCN1CCN(c2ncc(F)cn2)CC1)Cc1ccc(F)c2ccccc12` yielded a melting point of 119 to 120 °C.
For `OCCN1CC[C@@H]2[C@H]1CCC[C@@]2(O)c1ccc(Cl)c(Cl)c1` (racemic) the value was 161 °C; for `O=c1[nH]c2cc3nc(-c4ccncc4)[nH]c3cc2[nH]c1=O`, more than 300 °C.
As to `Clc1cccc2c1nnn2C1CCCCC1`, the melting point lay within 141 to 144 °C.
Molecule `COc1ccc2c(-c3ccccc3F)noc2c1I` gave a melting point of 135 to 138 °C.
The figure for `CCOC(=O)c1[nH]cc(-c2ccc(F)cc2)c1-c1ccc(F)cc1` is 157 to 159 °C; for `CCCn1c(CCOC)nc2c(N)nc3cc(OC4CCN(C(N)=O)CC4)ccc3c21` it is 207 to 208 °C.
For `O=C1c2ccccc2C(=O)N1C1CCCc2sccc21` (stereo not drawn) the value was 166 to 168 °C; for `CCOc1nc(C(=O)O)c2c(n1)nc(OCC)n2Cc1ccc(-c2ccccc2-c2nnn[nH]2)cc1`, 140 to 141 °C; for `CCCCCCN1Cc2cc3ccccc3n2Cc2ccccc21`, 45 °C.
The figure for `Cc1ccsc1-c1ccc(C(C)(N)C(=O)O)cc1` (stereo not drawn) is more than 250 °C; for `COc1cc2c(c3c1OC(C)(C)C3)C(c1cccc(N(C(C)=O)c3cccnc3)c1)=NC(C)(C)C2` it is 157 to 158 °C; for `O=C(C=Cc1ccc(Cl)c(Cl)c1)C1C(=O)CCC1=O` it is 190 to 191 °C.
Turning to `CC(=O)OCCCS(=O)(=O)c1ccc(S(N)(=O)=O)s1`, the melting point was 103 to 104 °C.
With `O=C(c1ccccc1)N1CCc2cc(S(=O)(=O)N3CC(c4ccccc4)NC3=O)ccc21` (stereo not drawn), the melting point turned out to be 127 °C.
For `CCc1c(C)nc(-c2ccccc2)nc1NCC(=O)N(C)c1ccc(Cl)cc1` the value was 142 to 143 °C.
The figure for `COc1cc2c(cc1Nc1ncc(Cl)c(N[C@@H]3[C@H](C(N)=O)[C@H]4C=C[C@@H]3C4)n1)CCOC(=O)N2C` is 168 to 170 °C.
The figure for `COC1(c2cccc(S(=O)(=O)c3ccc(N(C)C(C)=O)c(Cl)c3)c2)CCOCC1` is 119 to 121 °C; for `CCc1nc([N+](=O)[O-])c(CBr)n1C` it is 91 to 93 °C.
The molecule `Clc1ccc(-c2cc(C3CCN(CC4CC4)CC3)n[nH]2)cc1` gave a melting point of 176 to 178 °C.
The figure for `CCOP(=O)(Cc1ccc(NC(=O)CCc2cnoc2-c2ccc(F)cc2)cc1)OCC` is 134 to 135 °C; for `CC(C)CC(C#N)NC(=O)C(CC(C)C)NC(=O)c1ccc(Cn2ccnc2)cc1` (stereo not drawn) it is 100 to 103 °C; for `Cc1cc(O)cc(Br)c1C` it is 98 to 99 °C.
The figure for `COc1ccccc1CC(=O)c1ccc(C(C)C)c(OS(N)(=O)=O)c1C(C)C` is 159 to 161 °C.
For `CCOC(=O)C1(C(=O)OCC)N(c2ccccc2)C(=O)CC1(C)O` (stereo not drawn) the value was 98 to 99 °C.
In the case of `CCCCSc1nnc(-c2ccc([N+](=O)[O-])cc2)s1`, the melting point was found to be 140 °C.
The figure for `Nc1nc2ccc(OC(F)(F)F)c([N+](=O)[O-])c2s1` is 180 °C; for `O=C1CN=C(c2ccccc2F)c2cc(Cl)ccc2N1CC(O)CO` (stereo not drawn) it is 117 to 118 °C; for `CCCCc1ccc(NS(=O)(=O)c2ccc(N3CCNC3=O)cc2)cc1` it is 203 to 205 °C.
For `O=C1OC(CCC#Cc2ccccc2)C(O)=C1O` (stereo not drawn) the value was 145 to 146 °C; for `O[C@@H]1CN=C(c2cccs2)O[C@H]1c1ccccc1` (racemic), 158 °C.
The figure for `COc1cc(Nc2nn(Cc3ccccc3)c(=O)c3ccccc23)cc(OC)c1OC` is 206 to 207 °C; for `O=C1N(C(c2ccccc2)c2ccccc2)c2ccccc2C1(O)c1cc2c(cc1O)OCCCO2` (stereo not drawn) it is 115 to 118 °C; for `CC1(C)CN(CC=CC(=O)Nc2cc3c(Nc4ccc(F)c(Cl)c4)ncnc3cc2OCC2CC2)CC(=O)O1` it is 140 to 142 °C.
`CC(C)C[C@H](O)C(=O)N[C@@H](C)C(=O)N[C@@H]1C(=O)NCCS[C@@H]1c1ccccc1` gave a melting point of 93 to 99 °C.
The figure for `Cn1cc(-c2cc(-c3cnc4[nH]ccc4c3)ccn2)n(-c2ccc(C(C)(C)CN)cc2)c1=O` is 91 °C; for `O=C(CNC(=O)C(Cc1ccccc1)NC(=O)C1CCCN1)Oc1c(Cl)c(Cl)c(Cl)c(Cl)c1Cl` (stereo not drawn) it is 182 to 184 °C.
The figure for `CCOC(=O)c1ccc2nccn2c1` is 93 to 94 °C; for `CC(C)CC1(C(CCN2C(=O)c3ccc4c(ccc5ccccc54)c3C2=O)C(=O)NO)CCN(CCc2ccccc2)C1=O` (stereo not drawn) it is 203 to 205 °C; for `Cc1nn(C)c(C)c1N=C=S` it is 51 °C.
The molecule `O=C(O)c1cn(C2CC2)c2cc(N3CCNC(c4ccco4)C3)c(F)cc2c1=O` (stereo not drawn) showed a melting point of 176 °C.
For `c1cnc2c(OCCOc3nccnc3N3CCNCC3)cccc2c1` the value was 98 to 100 °C; for `OCCn1cnc2c(O)nc3ccccc3c21`, more than 300 °C.
For `COc1cc(F)cnc1OCC#Cc1ccc(Cl)nc1` the value was 101 to 102 °C; for `Cc1cc2[nH]c3ccncc3c(=O)n2n1`, more than 300 °C; for `CCCn1nnc(NC(=O)C2c3ccccc3Oc3ccccc32)n1`, 208 to 209 °C.
For `CC(C)(C)[Si](C)(C)O[C@@H]1C=CO[C@H](CO)[C@H]1O` the value was 55 to 56 °C; for `N#Cc1cnc2sc(-c3ccc(C=O)cc3)cc2c1Nc1ccc2[nH]ccc2c1`, more than 260 °C.
`O=C(OCc1ccnc2ccccc12)ON1C(=O)CCC1=O` displayed a melting point of 94 °C.
The figure for `CN(C)Cc1cccc(CSCCNC2=NS(=O)N=C2N)c1` (stereo not drawn) is 122 to 125 °C.
The figure for `O=S(=O)(c1ccccc1)N1CCC(C(Nc2ccc(F)cc2)c2ccc(F)cc2)CC1` (stereo not drawn) is 175 to 176 °C; for `CCCCCCCCCCCCCCCC(=O)N[C@@H](CSC[C@H](O)[C@H](O)CO)C(=O)O` it is 76 to 76.5 °C; for `COc1cc2ccc(CC(=S)N3CCOCC3)cc2c(C)c1OC` it is 100 to 103 °C.
`Cc1cc(Cn2nc(C(F)(F)C(F)(F)F)nc2C(F)(F)F)ccc1N`: the melting point lay within 60 to 63 °C.
For `CC(C)(C)c1cc(C=[N+]([O-])C(C)(C)C)c(O)c(C(C)(C)C)c1` the value was 235 °C; for `CN(C)C(=O)c1cccc(CN2C(=O)C3(COc4cc5c(cc43)OCCO5)c3ccccc32)c1` (stereo not drawn), 90 to 96 °C.
For `Cc1cc(Nc2ccn(-c3ccccc3)n2)cc(C)c1OC(=O)CC#N` the value was 116 to 117 °C; for `OP(O)C(NC(c1ccccc1)c1ccccc1)c1c[nH]c2ccccc12` (stereo not drawn), 154 °C; for `C=CCOC(=O)CC[C@H](NC(=O)Nc1ccc(COC(=O)Oc2ccc([N+](=O)[O-])cc2)cc1)C(=O)OCC=C`, 106 to 107 °C.
The figure for `COc1ccc(CCCN2CCc3cc(O)ccc3C2)cc1` is 163 to 164 °C; for `COc1cc(C(=O)N(C(C)C)C(C)C)ccc1OCCCCCOc1ccc(C=NN)cc1` it is 112 to 114 °C; for `CC(C)(C)C(=O)c1ccc(C(=O)NC(=O)CCc2ccccc2)cc1` it is 137 to 138 °C.
In turn, `CCc1c(C(=O)O)c(CC(=O)O)n(C)c1C(=O)c1ccc(Cl)cc1` displayed a melting point of 211 to 212 °C.
The figure for `C=CC(=O)NCC(=O)O` is 124 to 126 °C; for `O=C(NO)c1ccc2c(c1)CCN(C(=O)NCCOc1ccccc1)C2` it is 120 to 123 °C; for `O=C(NCc1ccc(F)cc1)c1cn2nc(N3CCN(C(=O)c4ccccc4C(F)(F)F)CC3)ccc2n1` it is 205 to 207 °C.
The figure for `CCOC(=O)N1CCN(C(C#N)c2ccc(OC)c(OC)c2OC)CC1` (stereo not drawn) is 138 to 139 °C.
The figure for `O=c1[nH]c2ccc(-c3ncc[nH]3)cc2[nH]c1=O` is more than 300 °C; for `O=C(O)C1=Cc2cc(-c3ccc(Cl)cc3)ccc2OCC1` it is 263 to 264 °C.
